Source: PMC8637440, “Structural Modifications Yield Novel Insights Into the Intriguing Pharmacodynamic Potential of Anti-inflammatory Nitro-Fatty Acids” (Frontiers in Pharmacology, 2021)
Counter-ions that a name gives are not always drawn. One block for each molecule: values may come before it. Residues, ends and D or L forms follow the SMILES beside them. *: point of attachment. Cbz = O=C(OCc1ccccc1)*

Key:
NF-κB p65 = NF-κB p65 transcription factor ELISA in TNFα-stimulated HCT-116 cells; assay type: cell-based; conditions: Homo sapiens, HCT-116, 4 h, read-out: inhibition of NF-κB p65 signaling
Procedure: (§1) The Nrf-2 and NF-κB transcription factors in the nuclear extracts were detected using an Nrf-2 Transcription Assay Kit (Cayman Chemical, # 600590) and NF-κB (p65 and p50) Transcription Factor Assay Kit (Cayman Chemical, # 10007889 and # 10006912). Prior to assay performance, the nuclear extracts were generated using a Nuclear Extraction Kit (Cayman Chemical, # 10009277). The assay was performed according to the manufacturer’s instructions. For all kits, the nuclear extracts were incubated overnight at 4°C. Development was carried out for 15–20 min or until the wells turned medium to dark blue. Five minutes after the stop solution had been added, the absorbance was read at 450 nm using a plate reader.
The proteasome inhibitor MG132 ([Lee and Goldberg, 1998]) was used as a positive control, as proteasomal inhibition leads to stabilization of I-κB and thus inhibits the activation of the NF-κB signaling pathway. We used a MG132 incubation period of 4 h as longer incubations have been described to activate NF-κB signaling ([Lee et al., 2013]).
FIGURE 1 Effects of NFA on the NF-κB p65 and p50 signaling pathway in colorectal cancer cells. […] Incubation for 4 h with the proteasome inhibitor MG132 (1 µM) served as the positive control. […] Values are normalized to protein concentration and unstimulated vehicle control. Data are represented as mean ± SD of (A) n = 3 (DMSO, 16.9.9, 9NOA control of right panel, 18.4.4, 18.6.7, and 18.9.10), n = 4 (all other derivatives) and (B) n = 5. Statistical significance was calculated by one-way analysis of variance (ANOVA) with Bonferroni post-test. *p ≤ 0.03, **p ≤ 0.0021, ***p ≤ 0.0002, ****p ≤ 0.0001 were considered significant versus TNF-α treatment.

Nrf-2 = Nrf-2 induction in HCT-116 cells (Western blot and ELISA); assay type: cell-based, human; conditions: 10 µM, 4 h, HCT-116, Western blot and ELISA
Procedure: as §1
HCT-116 and A549 cells were washed with 1× PBS, and cell extracts were generated using a Nuclear Extraction Kit (Cayman Chemical, #10009277) according to the manufacturer’s instructions, whereas whole-cell lysates were obtained using SDS lysis buffer (55.5 mM Tris-HCl pH 6.8, 2.2% SDS, 9% glycerol supplemented with protease (cOmplete® Protease Inhibitor Cocktail, Roche, Mannheim, Germany) and phosphatase (PhosStop® Easy Pack, Roche, Mannheim, Germany) inhibitors. Protein concentrations from the nuclear and cytosolic fractions were determined with a bicinchoninic acid (BCA) protein assay kit (Pierce™, Rockford, Illinois, United States). Cytoplasmic and nuclear extracts (100 µg each) and 30 µg whole-cell lysates were diluted in 5× Laemmli loading dye and denatured for 10 min at 95°C, loaded on a 10% SDS polyacrylamide gel, and separated by gel electrophoresis for 15 min at 80 V followed by 60 min at 120 V. The separated proteins were blotted onto a nitrocellulose membrane (Hybond-C Extra, Amersham Biosciences Ltd., UK) using the Mini Trans-Blot® module (Bio-Rad, Hercules, California, United States) for 90 min at 90 V. The membrane was blocked with Odyssey blocking buffer (Li-Cor Biosciences, Bad Homburg, Germany) or 5% milk powder in TBS-T (Tris Buffered Saline with 0.1% Tween) for 1 h at room temperature (RT). The membranes were incubated with the primary antibodies overnight at 4°C, and then with the secondary antibodies for 1 h at RT. The primary antibodies were diluted 1:1,000 and the secondary antibodies were diluted 1:10,000 to 1:20,000. […]
FIGURE 2 Effects of NFA on Nrf-2 expression in colorectal cancer cells. HCT-116 cells were treated with 10 µM NFA and tBHQ and/or MMF for 4 h, and Nrf-2 levels were analyzed by western blotting and ELISA. […] (B) Nrf-2 expression levels were evaluated with an ELISA after incubation with NFA with different carbon chain lengths and Michael acceptor positions. […]

HCT-116 cells = experiment: WST-1 cell viability assay, HCT-116; assay type: cell-based, human; conditions: WST-1 cell viability, 24 h, n.i. = no inhibition observed
Procedure: (§2) Cell viability was analyzed with the WST-1 assay based on the cleavage of the stable tetrazolium salt WST-1 by the mitochondrial reductase system. Cells were seeded in the appropriate densities in a clear 96-well plate and settled overnight at 37°C in 5% CO2. The next day, the cells were treated with NFA or the substances of interest (≤0.1% dimethyl sulfoxide [DMSO]) and incubated for 24 or 48 h at 37°C in 5% CO2. Cell viability was analyzed by adding 10 µl WST-1 solution (Roche, Basel, Switzerland) and subsequently incubating the cells at 37°C for another 30–40 min. Absorbance was measured at 450 nm with a control wavelength at 620 nm using a plate reader.
(§3) Besides targeting the NF-κB pathway, the anti-tumorigenic effects of NFA can be observed by a reduction of colorectal cancer cell viability. […] Again, the cytotoxic effects of NFA were determined in HCT-116 and HT-29 colorectal cancer cells in the present study. […] HCT-116 cells were treated with increasing concentrations of NFA differing in chain length and Michael acceptor position for 24 h, and cell viability was determined using the WST-1 assay. Due to their prolonged cell division rate and their lack of sensitivity towards NFA ([Kühn et al., 2018]), HT-29 cells were treated for 48 h to gain improved NFA activity.

HT-29 cells = experiment: WST-1 cell viability assay, HT-29; assay type: cell-based, human; conditions: n.i. = no inhibition observed
Procedure: as §2, §3

5-LO = target: T1, 5-LO (Homo sapiens, UniProt P09917); experiment: 5-LO product formation (LTB4, 5-HETE) in intact PMNL, A23187 + 20 µM AA; assay type: cell-based; conditions: 10 µM, A23187 2.5 µM + 20 µM AA (data not shown)
T1 construct: endogenous in cells; host or cells: human PMNL from buffy coats
T1 sequence (P09917 1-674): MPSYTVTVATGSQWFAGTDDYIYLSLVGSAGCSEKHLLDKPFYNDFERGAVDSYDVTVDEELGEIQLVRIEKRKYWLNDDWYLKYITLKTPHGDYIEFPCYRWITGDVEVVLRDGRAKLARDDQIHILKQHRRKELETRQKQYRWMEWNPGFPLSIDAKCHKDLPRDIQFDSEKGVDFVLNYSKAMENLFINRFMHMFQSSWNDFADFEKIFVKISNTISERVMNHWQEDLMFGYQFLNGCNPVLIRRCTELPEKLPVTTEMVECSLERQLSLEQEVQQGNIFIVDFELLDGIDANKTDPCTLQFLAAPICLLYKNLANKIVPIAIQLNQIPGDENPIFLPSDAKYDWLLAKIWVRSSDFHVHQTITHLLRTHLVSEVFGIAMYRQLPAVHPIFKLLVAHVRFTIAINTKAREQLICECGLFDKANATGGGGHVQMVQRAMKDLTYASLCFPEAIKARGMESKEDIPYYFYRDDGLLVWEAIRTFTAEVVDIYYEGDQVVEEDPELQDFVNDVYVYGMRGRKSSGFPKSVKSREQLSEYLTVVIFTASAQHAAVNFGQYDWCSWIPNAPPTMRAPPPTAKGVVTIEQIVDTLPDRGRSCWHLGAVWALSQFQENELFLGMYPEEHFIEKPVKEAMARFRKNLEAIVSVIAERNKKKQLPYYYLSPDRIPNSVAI
Procedure: Buffy coats from different donors of different blood types were commercially obtained from DRK Blutspendedienst Baden-Württemberg Institute Frankfurt. Donors have given their written consent. […] Following separation, the supernatant was transferred very gently to new 50-ml tubes containing lymphocyte separation medium (LSM) and centrifuged for 10 min at 800 ×g at RT with the centrifuge brake turned off. Afterwards, the supernatant was decanted carefully to discard the platelets and monocytes. The PMNL were washed with 1× PBS before the residual erythrocytes were lysed in two cycles: the cell pellet was resuspended with 10 ml H2O and vortexed for 45 s, and lysis was stopped with 40 ml 1 × PBS. After 10-min centrifugation at 200 ×g at RT, the cycle was repeated once. The supernatant was aspirated, the cell pellet resuspended in 5 ml PBS/glucose and initially separated PMNL preparations with different blood types were finally pooled to gain a sufficient number of cells. […] The enzyme was diluted in PBS/EDTA/ATP, transferred into 5-ml glass tubes, and stored on ice. […] The reaction was stopped by placing the glass tubes on ice. The supernatants were transferred to 1.5 ml reaction tubes and stored at −80°C before LC-MS (liquid chromatography and mass spectrometry) analysis of LTB4 and HETEs as described in 2.6 at the Institute of Pharmacology, Goethe University, University Hospital, Germany. The lipid mediators LTB4, hydroxyeicosatetraenoic acids, 5(S)-HETE, 12(S)-HETE, 15(S)-HETE and 20-HETE were analyzed using liquid chromatography tandem-mass spectroscopy (LC-MS/MS). The LC-MS/MS system consisted of a 5500 QTrap mass spectrometer (Sciex, Darmstadt, Germany), operating in negative ESI mode, an Agilent 1200 HPLC system (Agilent, Waldbronn, Germany) and an HTC Pal autosampler (Chromtech, Idstein, Germany). Sample extraction of LTB4 and HETEs were performed using liquid-liquid extraction: 200 µl of the sample were gently mixed with 20 µl of methanol and 20 µl of internal standard solution and extracted twice with 600 µl ethyl acetate. […] Working solutions of all analytes were prepared in methanol containing 0.1% BHT. The calibration standards were prepared by further dilution of the working standards. […] The residues were reconstituted in 50 µl of methanol:water:BHT (50:50:10^−4, v/v/v) prior to injection into the LC-MS/MS system. Chromatographic separation was achieved using a Gemini NX C18 column (150 mm × 2 mm ID, 5 µm, Phenomenex, Aschaffenburg, Germany) with a precolumn of the same material. A linear gradient was employed at a flow rate of 0.5 ml/min and a total run time of 17.5 min. Mobile phases were A water:ammonia (100:0.05, v/v) and B acetonitrile:ammonia (100:0.05, v/v). […] All data were acquired using Analyst software v1.6.2 and quantitation was performed by MultiQuant software v3.0 (both Sciex, Darmstadt, Germany) using the internal standard method (isotope-dilution mass spectrometry). Calibration curves were calculated by linear regression with 1/x.

SMILES: CC(C)C[C@@H](C=O)NC(=O)[C@H](CC(C)C)NC(=O)[C@H](CC(C)C)NC(=O)OCc1ccccc1 [MG132, reference compound] (Cbz-Leu-Leu-Leu-aldehyde)
- inhibition at 1 µM (NF-κB p65): ~90%

SMILES: COC(=O)/C=C/C(=O)O [MMF, monomethyl fumarate]
- induction of Nrf-2 (protein levels / signaling) (Nrf-2): increase

- IC50 (HCT-116 cells; Homo sapiens, HCT-116): 4.2 ± 1.2 µM
- IC50 (HT-29 cells; Homo sapiens, HT-29, 48 h): 10.3 ± 1.1 µM
SMILES: CC1=CC(=O)C(C(C)C)=CC1=O [TQ, thymoquinone, reference compound]
- HCT-116 (24 h) IC50 (HCT-116 cells): suppressed HCT-116 and HT-29 cell viability effectively
- HT-29 (48 h) IC50 (HT-29 cells): suppressed HCT-116 and HT-29 cell viability effectively

- inhibition of 5-LO product formation in PMNL (5-LO): > 90%
SMILES: COc1ccc2c(c1)CC[C@@H]1[C@@H]2CC[C@]2(C)[C@@H](NCCCCCCN3C(=O)C=CC3=O)CC[C@@H]12 [U73122, reference compound]

SMILES: CC(C)(C)c1cc(O)ccc1O [tBHQ, tert-butylhydroquinone]
- induction of Nrf-2 (protein levels / signaling) (Nrf-2): increase
